Results reported in patent publication US20240158446A1, “CYCLIC COMPOUND HAVING SELECTIVE INHIBITORY ACTION ON KRAS OVER HRAS AND NRAS” (CHUGAI SEIYAKU KABUSHIKI KAISHA, priority 2021, published 2024).

What was measured:
[1] = system: human lung cancer strain NCI-H441;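 further: cell proliferation inhibition after four days measured by CellTiter-Glo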
[2] = target: GDP-bound HRAS wild-type protein (Homo sapiens, UniProt P01112); assay: Binding to HRAS by surface plasmon resonance (SPR), Single Cycle Kinetics; settings: SPR, GDP-bound HRAS wild-type protein vs GDP-bound KRAS wild-type protein
Chain of GDP-bound HRAS wild-type protein (P01112 whole entry): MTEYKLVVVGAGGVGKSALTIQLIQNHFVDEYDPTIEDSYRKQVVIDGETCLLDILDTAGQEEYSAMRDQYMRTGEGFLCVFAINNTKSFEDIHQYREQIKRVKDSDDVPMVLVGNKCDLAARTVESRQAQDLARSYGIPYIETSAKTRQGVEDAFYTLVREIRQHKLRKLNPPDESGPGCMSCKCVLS

[3] = target: GDP-bound NRAS wild-type protein (Homo sapiens, UniProt P01111); assay: Binding to NRAS by surface plasmon resonance (SPR), Single Cycle Kinetics; settings: SPR, GDP-bound NRAS wild-type protein vs GDP-bound KRAS wild-type protein
Chain of GDP-bound NRAS wild-type protein (P01111 whole entry): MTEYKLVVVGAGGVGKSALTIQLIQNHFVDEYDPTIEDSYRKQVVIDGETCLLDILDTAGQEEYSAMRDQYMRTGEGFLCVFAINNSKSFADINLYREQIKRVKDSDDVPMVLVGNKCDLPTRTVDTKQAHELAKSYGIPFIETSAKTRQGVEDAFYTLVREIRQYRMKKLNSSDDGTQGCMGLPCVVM

[4] = target: GDP-bound KRAS wild-type protein (Homo sapiens, UniProt P01116); assay: Binding to KRAS by surface plasmon resonance (SPR), Single Cycle Kinetics; settings: SPR, Single Cycle Kinetics, GDP-bound KRAS wild-type protein; read-out: KRAS KD
Chain of GDP-bound KRAS wild-type protein (P01116 whole entry): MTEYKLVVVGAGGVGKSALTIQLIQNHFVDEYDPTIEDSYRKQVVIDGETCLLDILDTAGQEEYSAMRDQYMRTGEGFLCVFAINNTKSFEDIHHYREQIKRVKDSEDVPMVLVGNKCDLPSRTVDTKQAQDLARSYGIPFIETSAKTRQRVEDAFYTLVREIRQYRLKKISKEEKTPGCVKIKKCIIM

**Q.** For `CCC[C@H]1C(=O)N[C@@H]([C@@H](C)CC)C(=O)N(C2CC2)CC(=O)N(C)[C@H]2C/C=C\CCN(C2=O)[C@@H](CC2CCCCC2)C(=O)N(C)CC(=O)N[C@@H](CCc2ccc(C(F)(F)F)c(OC)c2)C(=O)N2C[C@H](OCC)C[C@H]2C(=O)N(C)C2(CCC2)C(=O)N(C)[C@@H](C(CC)CC)C(=O)N(C)[C@H](C(=O)N(C)C)CC(=O)N1C` [PP2337], which IC50 [1] is on record?
**A.** 33.9 nM

**Q.** And the “HRAS/KRAS (ratio of KD value for HRAS to KD value for KRAS)” value [2]?
**A.** A (a compound having 10 or more and less than 20 is denoted as A)

**Q.** And the “NRAS/KRAS (ratio of KD value for NRAS to KD value for KRAS)” value [3]?
**A.** A (a compound having 10 or more and less than 20 is denoted as A)

**Q.** What about the Kd [4] of the same compound?
**A.** 3.2 nM

**Q.** `CCOC[C@H]1C(=O)N[C@@H]([C@@H](C)CC)C(=O)N2CCC[C@H]2C(=O)N(C)[C@H]2C/C=C\CCN(C2=O)[C@@H](CC2CCC(F)(F)CC2)C(=O)N(C)CC(=O)N[C@@H](CCc2ccc(C(F)(F)F)c(OC)c2)C(=O)N2C[C@H](OCC)C[C@H]2C(=O)N(C)C2(CCC2)C(=O)N(C)[C@@H](C(CC)CC)C(=O)N(C)[C@H](C(=O)N(C)C)CC(=O)N1C` [PP2355] was tested. Which IC50 [1] did it give?
**A.** 103 nM

**Q.** What about the “HRAS/KRAS (ratio of KD value for HRAS to KD value for KRAS)” value [2] of the same compound?
**A.** A (a compound having 10 or more and less than 20 is denoted as A)

**Q.** And the “NRAS/KRAS (ratio of KD value for NRAS to KD value for KRAS)” value [3]?
**A.** AA (a compound having 20 or more is denoted as AA)

**Q.** And the Kd [4]?
**A.** 3.9 nM

**Q.** Which IC50 [1] does the source give for `CCC[C@H]1C(=O)N[C@@H]([C@@H](C)CC)C(=O)N2CCC[C@H]2C(=O)N(C)[C@H]2C/C=C\CCN(C2=O)[C@@H](CC2CCC(F)(F)CC2)C(=O)N(C)CC(=O)N[C@@H](CCc2ccc(C(F)(F)F)c(OC)c2)C(=O)N2C[C@H](OCC)C[C@H]2C(=O)N(C)C2(CCC2)C(=O)N(C)[C@@H](C2CCCC2)C(=O)N(C)[C@H](C(=O)N(C)C)CC(=O)N1C` [PP2356] here?
**A.** 14.7 nM

**Q.** What about the “HRAS/KRAS (ratio of KD value for HRAS to KD value for KRAS)” value [2] of the same compound?
**A.** A (a compound having 10 or more and less than 20 is denoted as A)

**Q.** What about the “NRAS/KRAS (ratio of KD value for NRAS to KD value for KRAS)” value [3] of the same compound?
**A.** A (a compound having 10 or more and less than 20 is denoted as A)

**Q.** And the Kd [4]?
**A.** 0.94 nM

**Q.** How did the IC50 [1] turn out when `CCCOC[C@H]1C(=O)N[C@@H]([C@@H](C)CC)C(=O)N2CCC[C@H]2C(=O)N(C)[C@H]2C/C=C\CCN(C2=O)[C@@H](CC2CCC(F)(F)CC2)C(=O)N(C)CC(=O)N[C@@H](CCc2ccc(C(F)(F)F)c(OC)c2)C(=O)N2C[C@H](OCC)C[C@H]2C(=O)N(C)C2(CCC2)C(=O)N(C)[C@@H](C2CCCC2)C(=O)N(C)[C@H](C(=O)N(C)C)CC(=O)N1C` [PP2357] was run?
**A.** 59.7 nM

**Q.** What about the “HRAS/KRAS (ratio of KD value for HRAS to KD value for KRAS)” value [2] of the same compound?
**A.** B (a compound having 3 or more and less than 10 is denoted as B)

**Q.** And the “NRAS/KRAS (ratio of KD value for NRAS to KD value for KRAS)” value [3]?
**A.** A (a compound having 10 or more and less than 20 is denoted as A)

**Q.** What about the Kd [4] of the same compound?
**A.** 1.2 nM

**Q.** How did the IC50 [1] turn out when `CCC[C@H]1C(=O)N[C@@H]([C@@H](C)CC)C(=O)N(C)CC(=O)N(C)[C@H]2C/C=C\CCN(C2=O)[C@@H](Cc2ccc(C(F)(F)F)cc2)C(=O)N(C)CC(=O)N[C@@H](CCc2ccc(C(F)(F)F)c(OC)c2)C(=O)N2C[C@@H](C)C[C@H]2C(=O)N(C)C2(CCC2)C(=O)N(C)[C@@H](C2CCCC2)C(=O)N(C)[C@H](C(=O)N(C)C)CC(=O)N1C` [PP2358] was run?
**A.** 2.5 nM

**Q.** What about the “HRAS/KRAS (ratio of KD value for HRAS to KD value for KRAS)” value [2] of the same compound?
**A.** B (a compound having 3 or more and less than 10 is denoted as B)

**Q.** And the “NRAS/KRAS (ratio of KD value for NRAS to KD value for KRAS)” value [3]?
**A.** A (a compound having 10 or more and less than 20 is denoted as A)

**Q.** And the Kd [4]?
**A.** 0.02 nM

**Q.** How did the IC50 [1] turn out when `CCOC[C@H]1C(=O)N[C@@H]([C@@H](C)CC)C(=O)N(C)CC(=O)N(C)[C@H]2C/C=C\CCN(C2=O)[C@@H](Cc2ccc(C(F)(F)F)cc2)C(=O)N(C)CC(=O)N[C@@H](CCc2ccc(C(F)(F)F)c(OC)c2)C(=O)N2C[C@@H](C)C[C@H]2C(=O)N(C)C2(CCC2)C(=O)N(C)[C@@H](C2CCCC2)C(=O)N(C)[C@H](C(=O)N(C)C)CC(=O)N1C` [PP2359] was run?
**A.** 7.6 nM

**Q.** What about the “HRAS/KRAS (ratio of KD value for HRAS to KD value for KRAS)” value [2] of the same compound?
**A.** B (a compound having 3 or more and less than 10 is denoted as B)

**Q.** And the “NRAS/KRAS (ratio of KD value for NRAS to KD value for KRAS)” value [3]?
**A.** A (a compound having 10 or more and less than 20 is denoted as A)

**Q.** And the Kd [4]?
**A.** 0.02 nM

**Q.** For `CCC[C@H]1C(=O)N[C@@H]([C@@H](C)CC)C(=O)N(C2CC2)CC(=O)N(C)[C@H]2C/C=C\CCN(C2=O)[C@@H](Cc2ccc(C(F)(F)F)cc2)C(=O)N(C)CC(=O)N[C@@H](CCc2ccc(C(F)(F)F)c(OC)c2)C(=O)N2C[C@@H](C)C[C@H]2C(=O)N(C)C2(CCC2)C(=O)N(C)[C@@H](C2CCCC2)C(=O)N(C)[C@H](C(=O)N(C)C)CC(=O)N1C` [PP2360], which IC50 [1] is on record?
**A.** 2.9 nM

**Q.** What about the “HRAS/KRAS (ratio of KD value for HRAS to KD value for KRAS)” value [2] of the same compound?
**A.** B (a compound having 3 or more and less than 10 is denoted as B)

**Q.** What about the “NRAS/KRAS (ratio of KD value for NRAS to KD value for KRAS)” value [3] of the same compound?
**A.** A (a compound having 10 or more and less than 20 is denoted as A)

**Q.** And the Kd [4]?
**A.** 0.16 nM

**Q.** Which IC50 [1] does the source give for `CCC[C@H]1C(=O)N[C@@H]([C@@H](C)CC)C(=O)N2CCC[C@H]2C(=O)N(C)[C@H]2C/C=C\CCN(C2=O)[C@@H](Cc2ccc(C(F)(F)F)cc2)C(=O)N(C)CC(=O)N[C@@H](CCc2ccc(C(F)(F)F)c(OC)c2)C(=O)N2C[C@@H](C)C[C@H]2C(=O)N(C)C2(CCC2)C(=O)N(C)[C@@H](C2CCCC2)C(=O)N(C)[C@H](C(=O)N(C)C)CC(=O)N1C` [PP2362] here?
**A.** 4.8 nM

**Q.** And the “HRAS/KRAS (ratio of KD value for HRAS to KD value for KRAS)” value [2]?
**A.** A (a compound having 10 or more and less than 20 is denoted as A)

**Q.** And the “NRAS/KRAS (ratio of KD value for NRAS to KD value for KRAS)” value [3]?
**A.** A (a compound having 10 or more and less than 20 is denoted as A)

**Q.** And the Kd [4]?
**A.** 0.076 nM

**Q.** Which results are given for `CCOC[C@H]1C(=O)N[C@@H]([C@@H](C)CC)C(=O)N2CCC[C@H]2C(=O)N(C)[C@H]2C/C=C\CCN(C2=O)[C@@H](Cc2ccc(C(F)(F)F)cc2)C(=O)N(C)CC(=O)N[C@@H](CCc2ccc(C(F)(F)F)c(OC)c2)C(=O)N2C[C@@H](C)C[C@H]2C(=O)N(C)C2(CCC2)C(=O)N(C)[C@@H](C2CCCC2)C(=O)N(C)[C@H](C(=O)N(C)C)CC(=O)N1C` [PP2363]?
**A.** IC50 [1]: 7.5 nM; HRAS/KRAS (ratio of KD value for HRAS to KD value for KRAS) [2]: B (a compound having 3 or more and less than 10 is denoted as B); NRAS/KRAS (ratio of KD value for NRAS to KD value for KRAS) [3]: A (a compound having 10 or more and less than 20 is denoted as A); Kd [4]: 0.062 nM

**Q.** What does the source list for `CCC[C@H]1C(=O)N[C@@H]([C@@H](C)CC)C(=O)N(C)CC(=O)N(C)[C@H]2C/C=C\CCN(C2=O)[C@@H](Cc2ccc(C)cc2)C(=O)N(C)CC(=O)N[C@@H](CCc2ccc(C(F)(F)F)c(OC)c2)C(=O)N2C[C@@H](C)C[C@H]2C(=O)N(C)C2(CCC2)C(=O)N(C)[C@@H](C2CCCC2)C(=O)N(C)[C@H](C(=O)N(C)C)CC(=O)N1C` [PP2364]?
**A.** IC50 [1]: 4.6 nM; HRAS/KRAS (ratio of KD value for HRAS to KD value for KRAS) [2]: B (a compound having 3 or more and less than 10 is denoted as B); NRAS/KRAS (ratio of KD value for NRAS to KD value for KRAS) [3]: A (a compound having 10 or more and less than 20 is denoted as A); Kd [4]: 0.016 nM

**Q.** `CCCOC[C@H]1C(=O)N[C@@H]([C@@H](C)CC)C(=O)N(C)CC(=O)N(C)[C@H]2C/C=C\CCN(C2=O)[C@@H](Cc2ccc(C)cc2)C(=O)N(C)CC(=O)N[C@@H](CCc2ccc(C(F)(F)F)c(OC)c2)C(=O)N2C[C@@H](C)C[C@H]2C(=O)N(C)C2(CCC2)C(=O)N(C)[C@@H](C2CCCC2)C(=O)N(C)[C@H](C(=O)N(C)C)CC(=O)N1C` [PP2365] was tested. Which IC50 [1] did it give?
**A.** 3.3 nM

**Q.** And the “HRAS/KRAS (ratio of KD value for HRAS to KD value for KRAS)” value [2]?
**A.** B (a compound having 3 or more and less than 10 is denoted as B)

**Q.** And the “NRAS/KRAS (ratio of KD value for NRAS to KD value for KRAS)” value [3]?
**A.** A (a compound having 10 or more and less than 20 is denoted as A)

**Q.** And the Kd [4]?
**A.** 0.02 nM
